One may read the IC50 as the concentration that gives 50% inhibition.

The results in this text go back to patent US10519177B2, “Heterocyclic compounds and uses thereof” (Plexxikon Inc., priority 2013, dated 2019).

Test [1] relates to bromodomain. Nature of the test: at least one of the bromodomain cell assays of Example 57. The class given is cell-based. The following applies: at least one of the bromodomain cell assays described in Example 57; read-out: IC50 in at least one of the bromodomain cell assays.
In test [2] the target is BRD4-BD1 (44-164) (Homo sapiens (Human), UniProt O60885). Nature of the test: Alphascreen binding assay BRD4-BD1. The following applies: BRD4(1) H4; read-out: Biochemical activity (IC50 μM) BRD4(1) H4. The gist of the method:
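His-tagged E. coli-expressed BRD4 BD1 (44-164) or BD1-BD2 (1-477) incubated 1 h at room temperature with biotinylated tetra-acetylated histone H4 1-21 peptide and compound in HEPES pH 7.5, NaCl, BSA, Triton X-100, DTT buffer. Ni-chelate/streptavidin AlphaScreen beads (7.5 µg/ml) added, read after 30 min; pIC50 from four-parameter fit.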
In general terms: Bead proximity is the source of the signal in Alpha formats.

Test [3] relates to MV-4-11 cells. Nature of the test: Oncology cell growth assay MV-4-11 (CellTiter Glo). In kind it is cell-based. To be noted: Homo sapiens, MV4-11, 72 h, read-out: Cell activity (IC50 μM) MV-4-11 3d-Growth. The method in brief:
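MV-4-11 AML cells (MLL-AF4), 3000 per well, exposed to 8-point 1:3 compound titration from 10 μM top concentration (0.2% DMSO) for 72 h. Viability by CellTiter Glo luminescence, normalized to DMSO controls; pIC50 from four-parameter curve fit.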

Regarding “1-(benzenesulfonyl)-5-(3,5-dimethylisoxazol-4-yl)pyrrolo[2,3-b]pyridine-3-carboxylic acid [P-0169]”, the IC50 in test [1] was less than 10 µM; in test [2], less than 1 µM.

With `Cc1noc(C)c1-c1cnc2c(c1)c(C(O)C1CCC(F)(F)CC1)cn2C` (stereo not shown) [P-0101, (4,4-difluorocyclohexyl)-[5-(3,5-dimethylisoxazol-4-yl)-1-methyl-pyrrolo[2,3-b]pyridin-3-yl]methanol], the IC50 in test [2] and in test [3] was less than 1 µM in each case.

Consider `Cc1noc(C)c1-c1cnc2c(c1)c(Sc1ccccc1)cn2-c1cnn(C)c1` [P-0184, 3,5-dimethyl-4-[1-(1-methylpyrazol-4-yl)-3-phenylsulfanyl-pyrrolo[2,3-b]pyridin-5-yl]isoxazole], for which the IC50 in test [2] is less than 1 µM.

Take `Cc1noc(C)c1-c1cnc2c(c1)c(S(=O)(=O)c1ccccc1)cn2-c1cnn(C)c1` [P-0185, 4-[3-(benzenesulfonyl)-1-(1-methylpyrazol-4-yl)pyrrolo[2,3-b]pyridin-5-yl]-3,5-dimethyl-isoxazole]: in test [2], the IC50 is less than 1 µM.

Turning to `CCOC(=O)C(c1ccccc1)n1cc(-c2cnn(C)c2)c2ncc(-c3c(C)noc3C)cc21` (stereo not shown) [P-0186, ethyl 2-[6-(3,5-dimethylisoxazol-4-yl)-3-(1-methylpyrazol-4-yl)pyrrolo[3,2-b]pyridin-1-yl]-2-phenyl-acetate], the half-maximal inhibitory concentration (IC50) in test [2] is less than 1 µM.

For `Cc1noc(C)c1-c1cnc2c(-c3cnn(C)c3)cn(C(CF)c3ccccc3)c2c1` (stereo not shown) [P-0187, 4-[1-(2-fluoro-1-phenyl-ethyl)-3-(1-methylpyrazol-4-yl)pyrrolo[3,2-b]pyridin-6-yl]-3,5-dimethyl-isoxazole], the IC50 in test [2] was less than 1 µM.

For the compound `Cc1noc(C)c1-c1cnc2c(-c3cnn(C)c3)cn(Cc3ccccc3C(F)(F)F)c2c1` [P-0188, 3,5-dimethyl-4-[3-(1-methylpyrazol-4-yl)-1-[[2-(trifluoromethyl)phenyl]methyl]pyrrolo[3,2-b]pyridin-6-yl]isoxazole], in test [2], the IC50 is less than 1 µM.

For the compound `Cc1noc(C)c1-c1cnc2c(-c3cnn(C)c3)cn(Cc3c(Cl)cccc3Cl)c2c1` [P-0189, 4-[1-[(2,6-dichlorophenyl)methyl]-3-(1-methylpyrazol-4-yl)pyrrolo[3,2-b]pyridin-6-yl]-3,5-dimethyl-isoxazole], the IC50 in test [2] is less than 1 µM.

Take `Cc1noc(C)c1-c1cnc2c(-c3cnn(C)c3)cn(Cc3cc(F)ccc3Cl)c2c1` [P-0190, 4-[1-[(2-chloro-5-fluoro-phenyl)methyl]-3-(1-methylpyrazol-4-yl)pyrrolo[3,2-b]pyridin-6-yl]-3,5-dimethyl-isoxazole]: in test [2], the IC50 is less than 1 µM.

Regarding `Cc1noc(C)c1-c1cnc2c(-c3cnn(C)c3)cn(C(CO)c3ccccc3)c2c1` (stereo not shown) [P-0192, 2-[6-(3,5-dimethylisoxazol-4-yl)-3-(1-methylpyrazol-4-yl)pyrrolo[3,2-b]pyridin-1-yl]-2-phenyl-ethanol], the IC50 in test [2] is less than 1 µM.

With `Cc1noc(C)c1-c1cnc2c(-c3cnn(C)c3)cn(Cc3ccccc3Cl)c2c1` [P-0193, 4-[1-[(2-chlorophenyl)methyl]-3-(1-methylpyrazol-4-yl)pyrrolo[3,2-b]pyridin-6-yl]-3,5-dimethyl-isoxazole], the IC50 in test [2] is less than 1 µM.

On to `Cc1noc(C)c1-c1cnc2c(-c3cnn(C)c3)cn(Cc3ccccc3OC(F)(F)F)c2c1` [P-0194, 3,5-dimethyl-4-[3-(1-methylpyrazol-4-yl)-1-[[2-(trifluoromethoxy)phenyl]methyl]pyrrolo[3,2-b]pyridin-6-yl]isoxazole], for which the IC50 in test [2] is less than 1 µM.

Regarding `Cc1noc(C)c1-c1cnc2c(-c3cnn(C)c3)cn(Cc3cccnc3)c2c1` [P-0195, 3,5-dimethyl-4-[3-(1-methylpyrazol-4-yl)-1-(3-pyridylmethyl)pyrrolo[3,2-b]pyridin-6-yl]isoxazole], the IC50 in test [2] is less than 1 µM.

Turning to `Cc1noc(C)c1-c1cnc2ccn(C(CC#N)C3CCCC3)c2c1` (stereo not shown) [P-0196, 3-cyclopentyl-3-[6-(3,5-dimethylisoxazol-4-yl)pyrrolo[3,2-b]pyridin-1-yl]propanenitrile], the IC50 in test [2] was less than 1 µM.

In the case of `Cc1noc(C)c1-c1cnc2c(-c3cnn(C)c3)cn(C(CC#N)C3CCCC3)c2c1` (stereo not shown) [P-0197, 3-cyclopentyl-3-[6-(3,5-dimethylisoxazol-4-yl)-3-(1-methylpyrazol-4-yl)pyrrolo[3,2-b]pyridin-1-yl]propanenitrile], the IC50 in test [2] was less than 1 µM.

For the compound `Cc1noc(C)c1-c1cnc2c(-c3cnn(C)c3)cn(Cc3ccccn3)c2c1` [P-0198, 3,5-dimethyl-4-[3-(1-methylpyrazol-4-yl)-1-(2-pyridylmethyl)pyrrolo[3,2-b]pyridin-6-yl]isoxazole], the IC50 in test [2] was less than 1 µM.

Consider `Cc1noc(C)c1-c1cnc2c(-c3cn[nH]c3)cn(C(C)c3ccccc3)c2c1` (stereo not shown) [P-0199, 3,5-dimethyl-4-[1-(1-phenyl-ethyl)-3-(1H-pyrazol-4-yl)pyrrolo[3,2-b]pyridin-6-yl]isoxazole], for which the IC50 in test [2] was less than 1 µM.

Regarding `CCn1cc(-c2cn(C(C)c3ccccc3)c3cc(-c4c(C)noc4C)cnc23)cn1` (stereo not shown) [P-0200, 4-[3-(1-ethylpyrazol-4-yl)-1-(1-phenylethyl)pyrrolo[3,2-b]pyridin-6-yl]-3,5-dimethyl-isoxazole], in test [2], the IC50 is less than 1 µM.

As for `C=CCn1cc(-c2cn(C(C)c3ccccc3)c3cc(-c4c(C)noc4C)cnc23)cn1` (stereo not shown) [P-0201, 4-[3-(1-allylpyrazol-4-yl)-1-(1-phenylethyl)pyrrolo[3,2-b]pyridin-6-yl]-3,5-dimethyl-isoxazole], in test [2], the IC50 is less than 1 µM.

`COCCn1cc(-c2cn(C(C)c3ccccc3)c3cc(-c4c(C)noc4C)cnc23)cn1` (stereo not shown) [P-0203, 4-[3-[1-(2-methoxyethyl)pyrazol-4-yl]-1-(1-phenyl-ethyl)pyrrolo[3,2-b]pyridin-6-yl]-3,5-dimethyl-isoxazole]: the IC50 in test [2] was less than 1 µM.

With `Cc1noc(C)c1-c1cnc2c(-c3cnn(C4CCOC4)c3)cn(C(C)c3ccccc3)c2c1` (stereo not shown) [P-0204, 3,5-dimethyl-4-[1-(1-phenyl-ethyl)-3-(1-tetrahydrofuran-3-ylpyrazol-4-yl)pyrrolo[3,2-b]pyridin-6-yl]isoxazole], in test [2], the IC50 is less than 1 µM.

As for `Cc1nn(C)cc1-c1cn(C(C)c2ccccc2)c2cc(-c3c(C)noc3C)cnc12` (stereo not shown) [P-0205, 4-[3-(1,3-dimethylpyrazol-4-yl)-1-(1-phenylethyl)pyrrolo[3,2-b]pyridin-6-yl]-3,5-dimethyl-isoxazole], in test [2], the IC50 is less than 1 µM.

Take `Cc1noc(C)c1-c1cnc2c(-c3cnn(C)c3)cn(C(C(=O)O)c3ccccc3)c2c1` (stereo not shown) [P-0206, 2-[6-(3,5-dimethylisoxazol-4-yl)-3-(1-methylpyrazol-4-yl)pyrrolo[3,2-b]pyridin-1-yl]-2-phenyl-acetic acid]: in test [2], the IC50 was less than 1 µM.

Regarding `Cc1noc(C)c1-c1cnc2c(-c3cnn(C)c3)cn(C(C(=O)NC3CC3)c3ccccc3)c2c1` (stereo not shown) [P-0207, N-cyclopropyl-2-[6-(3,5-dimethylisoxazol-4-yl)-3-(1-methylpyrazol-4-yl)pyrrolo[3,2-b]pyridin-1-yl]-2-phenyl-acetamide], the half-maximal inhibitory concentration (IC50) in test [2] is less than 1 µM.

For `Cc1noc(C)c1-c1cnc2c(-c3cnn(C)c3)cn(CC3CCC(F)(F)CC3)c2c1` [P-0209, 4-[1-[(4,4-difluorocyclohexyl)methyl]-3-(1-methylpyrazol-4-yl)pyrrolo[3,2-b]pyridin-6-yl]-3,5-dimethyl-isoxazole], the 50% inhibitory concentration (IC50) in test [2] was less than 1 µM.

With `Cc1noc(C)c1-c1cnc2c(-c3cnn(C(F)F)c3)cn(CC3CCC(F)(F)CC3)c2c1` [P-0210, 4-[1-[(4,4-difluorocyclohexyl)methyl]-3-[1-(difluoromethyl)pyrazol-4-yl]pyrrolo[3,2-b]pyridin-6-yl]-3,5-dimethyl-isoxazole], the IC50 in test [2] is less than 1 µM.

`Cc1noc(C)c1-c1cnc2c(-c3cnn(C)c3)cn(CC3(F)CCCCC3)c2c1` [P-0212, 4-[1-[(1-fluorocyclohexyl)methyl]-3-(1-methylpyrazol-4-yl)pyrrolo[3,2-b]pyridin-6-yl]-3,5-dimethyl-isoxazole]: the IC50 in test [2] was less than 1 µM.

In the case of `Cc1noc(C)c1-c1cnc2c(-c3cnn(C)c3)cn(CC3CC(F)(F)C3)c2c1` [P-0213, 4-[1-[(3,3-difluorocyclobutyl)methyl]-3-(1-methylpyrazol-4-yl)pyrrolo[3,2-b]pyridin-6-yl]-3,5-dimethyl-isoxazole], the IC50 in test [2] was less than 1 µM.

Take `Cc1noc(C)c1-c1cnc2c(-c3cc(C(F)(F)F)n[nH]3)cn(C(C)c3ccccc3)c2c1` (stereo not shown) [P-0215, 3,5-dimethyl-4-[1-(1-phenylethyl)-3-[3-(trifluoromethyl)-1H-pyrazol-5-yl]pyrrolo[3,2-b]pyridin-6-yl]isoxazole]: the IC50 in test [2] was less than 1 µM.

For `Cc1noc(C)c1-c1cnc2c(-c3cnn(C4CC4)c3)cn(C(C)c3ccccc3)c2c1` (stereo not shown) [P-0216, 4-[3-(1-cyclopropylpyrazol-4-yl)-1-(1-phenylethyl)pyrrolo[3,2-b]pyridin-6-yl]-3,5-dimethyl-isoxazole], the IC50 in test [2] is less than 1 µM.

On to `Cc1noc(C)c1-c1cnc2c(-c3cnn(C)c3)cn([C@@H](C)c3ccccc3)c2c1` [P-0222, 3,5-dimethyl-4-[3-(1-methylpyrazol-4-yl)-1-[(1S)-1-phenylethyl]pyrrolo[3,2-b]pyridin-6-yl]isoxazole], for which the IC50 in test [2] was less than 1 µM.

With `Cc1noc(C)c1-c1cnc2c(I)cn(C(C)c3ccccc3)c2c1` (stereo not shown) [P-0224, 4-[3-iodo-1-(1-phenylethyl)pyrrolo[3,2-b]pyridin-6-yl]-3,5-dimethyl-isoxazole], the IC50 in test [2] is less than 1 µM.
